This test concerns the target T1, delF508-CFTR (Homo sapiens, UniProt P13569, DEL508-508).
T1 construct: expressed in transfected cells
In words: Measurement of delF508-CFTR-HRP surface expression in CFBE41o- cells. In kind it is cell-based. Conditions: for EC50: HRP-tagged delF508-CFTR in CFBE41o- cells, 24 h with compound, luminescence, 10-point curve, top 10 μM; for Emax: efficacy relative to reference compound 3-(6-(1-(2,2-difluorobenzo[d][1,3]dioxol-5-yl)cyclopropane-1-carboxamido)-3-methylpyridin-2-yl)benzoic acid, CFBE41o- cells, 24 h, read-out: DelF508-CFTR-HRP Amax %. The source says:
Measurement of delF508-CFTR-HRP Surface Expression in CFBE41o-Cells
This assay quantifies the cell surface expressions of the mutant CFTR channel using an extracellular HRP tag.
A cellular assay was developed to measure surface expression of horseradish peroxidase (HRP) tagged delF508-CFTR in the human bronchial epithelial immortalized CFBE41o-cell line (Phuan, P. W., et al, (2014) Molecular Pharmacology 86:42-51). Specifically, the HRP sequence was inserted into the fourth extracellular loop of delF508-CFTR and stably expressed in CFBE41o-cells. Cells were seeded in 384 well plate at a density of 5000 cells/well and incubated at 37° C. for 12 to 24 hours in medium (Gibco MEM #11095, 10% FBS, 10 mM HEPES, […], 200 μg/mL G418, 3 μg/mL Puromycin). The delF508-CFTR-HRP expression was induced with 500 ng/mL doxycycline (Sigma D-9891, dissolved in H2O and sterile filtered) in medium and the cells were incubated at 37° C. for 48 h. Old medium was removed and fresh medium was added containing 500 ng/mL doxycycline and unknown test compound at required test concentration in DMSO, not exceeding 0.5% final DMSO concentration. The highest concentration tested was 10 μM with a 10-point concentration response curve using a 3-fold dilution. After addition of compounds, the cells were incubated for 24 h at 37° C. On the final day, cells were washed four times in PBS containing 1 mM MgCl2 and 0.1 mM CaCl2. HRP-Substrate (SuperSignal ELISA Pico, Fisher #37069) 20 μl/well was added and the luminescence signal was determined (Viewlux, Perkin Elmer). Light was emitted upon addition of exogenous HRP-Substrate only when delF508-CFTR-HRP reached the cell surface and the HRP tag was accessible to the HRP-Substrate (note: HRP-Substrate cannot cross the lipid bilayer to reach delF508-CFTR-HRP misfolded within the cell).
The median activity for the lowest concentration of the compounds on each assay plate was calculated and this value was used to normalize the signal for each well on the respective plate. Three replicates at each concentrations for every compound were run to determine one EC50. The median value was determined and used to calculate compound activities as described below. Effective half maximal values (EC50) were calculated for each compound by performing logistic regression on measured dose-response data points using the equation: […]
where “Y” is the observed activity, “Bottom” is the lowest observed value, “Top” is the highest observed value, and the “Hill coefficient” gives the largest absolute value of the slope. The curve fitting is carried out by a curve fitting program implemented at GNF using Matlab (Mathworks).
The dose response curves also were used to calculate Fold Change (FC) using the equation: […]
Compound efficacy relative to the reference compound 3-(6-(1-(2,2-difluorobenzo[d][1,3]dioxol-5-yl)cyclopropane-1-carboxamido)-3-methylpyridin-2-yl)benzoic acid was determined using the following formula: […]

T1 sequence (P13569 with tags, fused parts or gaps DEL508-508): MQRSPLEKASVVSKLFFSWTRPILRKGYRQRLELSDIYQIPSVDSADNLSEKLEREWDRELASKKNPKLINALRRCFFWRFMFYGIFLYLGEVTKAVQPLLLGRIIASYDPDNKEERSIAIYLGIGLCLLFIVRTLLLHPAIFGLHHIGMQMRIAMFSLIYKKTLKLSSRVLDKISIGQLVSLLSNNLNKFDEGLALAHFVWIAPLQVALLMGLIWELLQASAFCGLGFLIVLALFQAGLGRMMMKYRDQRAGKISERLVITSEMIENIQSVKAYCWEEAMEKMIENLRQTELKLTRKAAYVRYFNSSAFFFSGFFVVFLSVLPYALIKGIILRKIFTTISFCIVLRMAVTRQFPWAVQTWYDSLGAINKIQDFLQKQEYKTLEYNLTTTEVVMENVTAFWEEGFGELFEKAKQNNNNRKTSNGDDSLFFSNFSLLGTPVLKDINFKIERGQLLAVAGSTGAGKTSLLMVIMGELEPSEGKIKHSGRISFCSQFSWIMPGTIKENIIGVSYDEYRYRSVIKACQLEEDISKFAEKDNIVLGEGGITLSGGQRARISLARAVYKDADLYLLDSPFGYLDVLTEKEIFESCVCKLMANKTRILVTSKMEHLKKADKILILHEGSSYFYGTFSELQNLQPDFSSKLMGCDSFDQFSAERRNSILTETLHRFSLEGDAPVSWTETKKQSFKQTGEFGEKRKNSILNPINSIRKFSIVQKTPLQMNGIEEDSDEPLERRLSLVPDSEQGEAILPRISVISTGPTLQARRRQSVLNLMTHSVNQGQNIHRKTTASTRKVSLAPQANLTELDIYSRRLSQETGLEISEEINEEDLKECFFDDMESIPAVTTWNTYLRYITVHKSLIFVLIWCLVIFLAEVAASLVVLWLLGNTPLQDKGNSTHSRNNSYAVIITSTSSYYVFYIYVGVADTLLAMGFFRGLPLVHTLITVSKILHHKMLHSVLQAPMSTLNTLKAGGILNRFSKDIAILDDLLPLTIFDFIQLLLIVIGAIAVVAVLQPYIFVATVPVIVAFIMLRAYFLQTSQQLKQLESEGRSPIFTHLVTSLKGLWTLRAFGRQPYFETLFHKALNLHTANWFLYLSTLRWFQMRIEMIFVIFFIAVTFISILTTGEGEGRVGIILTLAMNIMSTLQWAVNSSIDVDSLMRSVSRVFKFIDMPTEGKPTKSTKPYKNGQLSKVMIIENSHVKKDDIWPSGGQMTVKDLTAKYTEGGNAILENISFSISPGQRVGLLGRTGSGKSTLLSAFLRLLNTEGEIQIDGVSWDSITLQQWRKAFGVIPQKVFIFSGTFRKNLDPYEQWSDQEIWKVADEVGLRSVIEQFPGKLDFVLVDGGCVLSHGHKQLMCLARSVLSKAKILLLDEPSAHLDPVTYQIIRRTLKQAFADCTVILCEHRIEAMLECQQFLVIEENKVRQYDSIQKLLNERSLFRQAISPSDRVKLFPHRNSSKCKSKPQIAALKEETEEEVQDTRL

On to `O=C(O)CCNc1cccc(S(=O)(=O)Nc2ccc(C(F)(F)F)c(-c3ccccc3C3CC3)n2)n1` [Compound 39, 3-((6-(N-(6-(2-cyclopropylphenyl)-5-(trifluoromethyl)pyridin-2-yl)sulfamoyl)pyridin-2-yl)amino)propanoic Acid], for which the EC50 was 3260 nM and the Emax was 257%.
In the same order, the values of `Cc1cccc(C)c1-c1nc(NS(=O)(=O)c2cccc(N(CCCC(=O)O)CC(C)C)n2)ccc1Cl` [Compound 155, 4-((6-(N-(5-chloro-6-(2,6-dimethylphenyl)pyridin-2-yl)sulfamoyl)pyridin-2-yl)(isobutyl)amino)butanoic Acid] are 670 nM and 699%.
Turning to `Cc1ccccc1-c1nc(NS(=O)(=O)c2cccc(N(C)CCC(=O)O)n2)ccc1C(F)(F)F` [Compound 34, 3-(methyl(6-(N-(6-(o-tolyl)-5-(trifluoromethyl)pyridin-2-yl)sulfamoyl)pyridin-2-yl)amino)propanoic Acid], the EC50 is 2580 nM and the Emax was 785%.
As to `Cc1cccc(C)c1-c1nc(NS(=O)(=O)c2ccnc(NC(C)CC(=O)O)c2)ccc1Cl` (stereo not shown) [Compound 142, 3-((4-(N-(5-chloro-6-(2,6-dimethylphenyl)pyridin-2-yl)sulfamoyl)pyridin-2-yl)amino)butanoic Acid], the EC50 turned out to be 4460 nM and the Emax came to 84%.
For `Cc1cccc(C)c1-c1nc(NS(=O)(=O)c2cccc(NCCCC(=O)O)n2)ccc1Cl` [Compound 3, 4-((6-(N-(5-chloro-6-(2,6-dimethylphenyl)pyridin-2-yl)sulfamoyl)pyridin-2-yl)amino)butanoic Acid], in that order: 2580 nM and 722%.
Regarding `Cc1ccccc1-c1nc(NS(=O)(=O)c2cccc(N3CCCC(CC(=O)O)C3)n2)ccc1C(F)(F)F` (stereo not shown) [Compound 88, 2-(1-(6-(N-(6-(o-tolyl)-5-(trifluoromethyl)pyridin-2-yl)sulfamoyl)pyridin-2-yl)piperidin-3-yl)acetic Acid], the EC50 was 2040 nM.
On to `Cc1c(F)cccc1-c1nc(NS(=O)(=O)c2cccc(N3CCCC(C)(CC(=O)O)C3)n2)ccc1C(F)(F)F` (stereo not shown) [Compound 50, 2-(1-(6-(N-(6-(3-fluoro-2-methylphenyl)-5-(trifluoromethyl)pyridin-2-yl)sulfamoyl)pyridin-2-yl)-3-methylpiperidin-3-yl)acetic Acid], for which the EC50 was determined as 2100 nM and the Emax is 867%.
For `COc1ccc(Cl)c(-c2nc(NS(=O)(=O)c3cccc(N4CCN(c5ccc(C(=O)O)cc5)CC4)n3)ccc2C(F)(F)F)c1` [Compound 21, 4-(4-(6-(N-(6-(2-chloro-5-methoxyphenyl)-5-(trifluoromethyl)pyridin-2-yl)sulfamoyl)pyridin-2-yl)piperazin-1-yl)benzoic Acid], in that order: 2930 nM and 361%.
For `CCN(CCC(=O)O)c1cccc(S(=O)(=O)Nc2ccc(C(F)(F)F)c(-c3cc(F)ccc3C3CC3)n2)n1` [Compound 111, 3-((6-(N-(6-(2-cyclopropyl-5-fluorophenyl)-5-(trifluoromethyl)pyridin-2-yl)sulfamoyl)pyridin-2-yl)(ethyl)amino)propanoic Acid], the EC50 came to 1780 nM.
Same read-out and setting: to `CCc1ccc(F)cc1-c1nc(NS(=O)(=O)c2cccc(N(CCC(=O)O)C(C)C)n2)ccc1C(F)(F)F` [Compound 119, 3-((6-(N-(6-(2-ethyl-5-fluorophenyl)-5-(trifluoromethyl)pyridin-2-yl)sulfamoyl)pyridin-2-yl)(isopropyl)amino)propanoic Acid] belongs 1410 nM.
On to `Cc1cccc(C)c1-c1nc(NS(=O)(=O)c2cccc(N3CCC(CC(=O)O)CC3)n2)ccc1Cl` [Compound 5, 2-(1-(6-(N-(5-chloro-6-(2,6-dimethylphenyl)pyridin-2-yl)sulfamoyl)pyridin-2-yl)piperidin-4-yl)acetic Acid], for which the half-maximal effective concentration (EC50) worked out at 2580 nM and the Emax is 596%.
In the same order, the values of `Cc1ccccc1-c1nc(NS(=O)(=O)c2cccc(N3CCC(CC(=O)O)CC3)n2)ccc1C(F)(F)F` [Compound 14, 2-(1-(6-(N-(6-(o-tolyl)-5-(trifluoromethyl)pyridin-2-yl)sulfamoyl)pyridin-2-yl)piperidin-4-yl)acetic Acid] are 2550 nM and 283%.
`Cc1ccc(F)cc1-c1nc(NS(=O)(=O)c2cccc(N(CCCCC(=O)O)C(C)C)n2)ccc1C(F)(F)F` [Compound 100, 5-((6-(N-(6-(5-fluoro-2-methylphenyl)-5-(trifluoromethyl)pyridin-2-yl)sulfamoyl)pyridin-2-yl)(isopropyl)amino)pentanoic Acid]: the EC50 was found to be 2490 nM.
Still for that read-out and setting: next, `Cc1ccc(F)cc1-c1nc(NS(=O)(=O)c2cccc(N(C)CC3(C(=O)O)CCC3)n2)ccc1C(F)(F)F` [Compound 139, 1-(((6-(N-(6-(5-fluoro-2-methylphenyl)-5-(trifluoromethyl)pyridin-2-yl)sulfamoyl)pyridin-2-yl)(methyl)amino)methyl)cyclobutane-1-carboxylic Acid]: 1120 nM; `Cc1ccccc1-c1nc(NS(=O)(=O)c2cccc(N3CCC[C@](C)(CC(=O)O)C3)n2)ccc1C(F)(F)F` (single isomer, unassigned) [Compound 123]: 1610 nM.
Consider `Cc1ccccc1-c1nc(NS(=O)(=O)c2cccc(N3CCC[C@H](CC(=O)O)C3)n2)ccc1C(F)(F)F` [Compound 59, (R)-2-(1-(6-(N-(6-(o-tolyl)-5-(trifluoromethyl)pyridin-2-yl)sulfamoyl)pyridin-2-yl)piperidin-3-yl)acetic Acid], for which the EC50 is 2070 nM and the Emax was found to be 920%.
For `CC(C)c1ccccc1-c1nc(NS(=O)(=O)c2cccc(N3CCC(OCC(=O)O)CC3)n2)ccc1C(F)(F)F` [Compound 31, 2-((1-(6-(N-(6-(2-isopropylphenyl)-5-(trifluoromethyl)pyridin-2-yl)sulfamoyl)pyridin-2-yl)piperidin-4-yl)nxy)acetic Acid], in that order: 2140 nM and 443%.
For `Cc1ccccc1-c1nc(NS(=O)(=O)c2cccc(N(C)CC(C)(C)C(=O)O)n2)ccc1C(F)(F)F` [Compound 46, 2,2-dimethyl-3-(methyl(6-(N-(6-(o-tolyl)-5-(trifluoromethyl)pyridin-2-yl)sulfamoyl)pyridin-2-yl)amino)propanoic Acid], in that order: 1810 nM and 493%.
As to `CCc1ccccc1-c1nc(NS(=O)(=O)c2cccc(N3CCCC(CCCC(=O)O)C3)n2)ccc1C(F)(F)F` (stereo not shown) [Compound 83, 4-(1-(6-(N-(6-(2-ethylphenyl)-5-(trifluoromethyl)pyridin-2-yl)sulfamoyl)pyridin-2-yl)piperidin-3-yl)butanoic Acid], the EC50 was 1450 nM.
The same measure, in the same setting: next, `C=Cc1ccccc1-c1nc(NS(=O)(=O)c2cccc(N3CCC[C@@H](CC(=O)OC)C3)n2)ccc1C(F)(F)F` [Compound 78, methyl (S)-2-(1-(6-(N-(5-(trifluoromethyl)-6-(2-vinylphenyl)pyridin-2-yl)sulfamoyl)pyridin-2-yl)piperidin-3-yl)acetate]: 1410 nM.
With `Cc1ccccc1-c1nc(NS(=O)(=O)c2cccc(N3CCC(C)(CC(=O)O)CC3)n2)ccc1C(F)(F)F` [Compound 7, 2-(4-methyl-1-(6-(N-(6-(o-tolyl)-5-(trifluoromethyl)pyridin-2-yl)sulfamoyl)pyridin-2-yl)piperidin-4-yl)acetic Acid], the EC50 came to 1880 nM and the Emax was 363%.

For the origin of these results see patent US20220127247A1, “N-(PYRIDIN-2-YL)PYRIDINE-SULFONAMIDE DERIVATIVES AND THEIR USE IN THE TREATMENT OF DISEASE” (NOVARTIS AG, priority 2019, published 2022).
